Target: T1, PnPHR1 (P. neolycopersici photolyase, PN0912) (Erysiphe neolycopersici, UniProt A0A7D3USA5)
T1 construct: GenBank MT277362-MT277364 printed for the three genes together (MT277363 only by order of listing)
T1 sequence (A0A7D3USA5 1-634): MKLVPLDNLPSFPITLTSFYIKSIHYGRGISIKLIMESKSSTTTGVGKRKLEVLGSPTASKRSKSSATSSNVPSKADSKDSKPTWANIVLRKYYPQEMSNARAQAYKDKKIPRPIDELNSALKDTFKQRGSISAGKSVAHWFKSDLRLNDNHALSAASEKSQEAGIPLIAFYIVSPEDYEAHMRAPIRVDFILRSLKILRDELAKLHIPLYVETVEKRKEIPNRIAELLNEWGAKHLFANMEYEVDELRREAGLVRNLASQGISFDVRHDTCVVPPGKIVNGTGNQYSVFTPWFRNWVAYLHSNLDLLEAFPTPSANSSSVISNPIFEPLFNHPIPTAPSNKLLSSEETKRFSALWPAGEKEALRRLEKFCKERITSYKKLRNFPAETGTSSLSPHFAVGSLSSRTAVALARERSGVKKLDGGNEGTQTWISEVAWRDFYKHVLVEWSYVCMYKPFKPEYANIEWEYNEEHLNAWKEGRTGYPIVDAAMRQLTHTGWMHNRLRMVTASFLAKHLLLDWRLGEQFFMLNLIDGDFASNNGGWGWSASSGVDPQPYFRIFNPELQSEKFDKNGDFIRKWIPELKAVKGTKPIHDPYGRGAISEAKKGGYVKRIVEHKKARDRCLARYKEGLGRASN
Assay: absorption and fluorescence spectra of purified protein and of chromophore released by heat
Type: binding
Conditions: pH 8.0 storage buffer, 22 °C; intrinsic chromophore co-purified from E. coli; identity inferred from emission (excitation 370 nm); no clear absorption maximum

Cc1cc2c(cc1C)N(C[C@H](O)[C@H](O)[C@H](O)COP(=O)(O)OP(=O)(O)OC[C@H]1O[C@@H](n3cnc4c(N)ncnc43)[C@H](O)[C@@H]1O)c1[nH]c(=O)[nH]c(=O)c1N2 [FADH^–]
absorption and fluorescence spectra of purified protein and of chromophore relea: could only reveal the presence of a reduced form of FAD, i.e., FADH^–
